Series [1] in a line: Thermal denaturation (Tm) of siRNA duplexes. The series is classed as physicochemical. The settings on record: for Tm: 7.5 mM phosphate buffer pH 7.0 containing 140 mM KCl, 1 μM strands, 40-95° C. The protocol: Thermal denaturation studies of siRNA was carried out in phosphate buffer, pH 7.0, containing 140 mM KCl. UV absorbance was monitored at 260 nm in the temperature range from 40 to 95° C. using a Lambda 35 UV-Vis spectrophotometer equipped with a Peltier temperature programmer with a heating rate of 0.5° C./min. Samples (1 μM RNA) were denatured at 90° C. for 3 min followed by slow cooling to 27° C. prior to the measurements. Tm values were obtained from the maxima of the first derivatives of the melting curves. All Tm values given are the averages of three independent sets of experiments (±0.3° C. error range).

For series [2], the system named is GAPDH. Nature of the series: GAPDH gene knockdown in MG63 cells by RT-PCR. The series is classed as cell-based, human. The conditions noted are these: for GAPDH gene knockdown: 50 nM, 24 h. On the procedure: At 70% confluency, a day prior to transfection, the cells were seeded at a density of 35 000 cells in a 24-well cell culture plate to achieve 60-80% confluence at the day of transfection. Cell penetrating siRNAs (cpRNAs) of different lengths were transfected at 50 nM concentrations with Magnet Assisted Transfection (MATra-si) reagent for siRNAs (IBA GmbH, Göttingen, Germany) according to the manufacturers' protocols. Briefly, the siRNA was mixed with MATra-si reagent composed of supermagnetic ironoxide nanoparticles and incubated for 20 min. A complex was formed which was added to the cells to be transfected. A strong magnetic force was applied beneath the cells for 15 min. This forced the complex to be drawn into the cells by the magnetic field, and as a result the siRNA was delivered directly into the cytosol. For carrier free transfection experiments, cpRNAs were simply added to cells lines MG63, HOB, HCT116, fibroblasts and keratinocytes at 50 nM concentrations. Cells were also transfected with negative control siRNA (scrambled sequence) and cells left untreated were taken as controls. Each transfection was performed in triplicate. Post transfection, cells were incubated for 24 hours.
For the experiments involving lysosomotropic agent chloroquine (CQ), CQ was first neutralized to pH 7.4 using 1 M NaOH prior to use. MG63 cells were transfected with dT2, dT5, dT8, (dT5)2, as(dT5), and bl(dT5) siRNA in presence or absence of 100 μM CQ or using MATra-si and incubated for 24 h. Similar experiments were performed for other cpRNAs namely, dA5, dT5, dG5, (dT5)2, rA5 and dC5. For the control experiment, cells were either left untreated or transfected with negative control siRNA (scrambled sequence). Each transfection experiment was performed in triplicate.
After performing transfection experiments for 24 h, 48 h and 72 h respectively, total RNA was isolated from cells by adding 500 μl of lysis buffer (Qiagen, Germany), followed by homogenization of cell lysates using QIAshredder (Qiagen, Germany). RNA was extracted from cell lysates by RNeasy Mini Kit (Qiagen, Germany). All RNA samples were treated with DNase using TURBO-DNAfree (Ambion, USA). Agilent 2100 BioAnalyzer (Agilent Technologies, Palo Alto, Calif.) was used to confirm high quality of all RNA samples, which reports an RNA Integrity Number (RIN) that takes into account the entire electrophoretic RNA trace produced in the analysis. A RIN of greater than or equal to seven indicates the RNA is suitable for high stringency applications.
cDNA synthesis was performed in triplicate using total RNA reverse transcribed using High Capacity cDNA reverse transcription kit (Applied Biosystems, USA), with non-template control added to ensure a lack of signal in assay background. Reactions were incubated on a 96-well Applied Biosystems 9800 Fast Thermal Cycler PCR System at 37° C. for 60 min followed by 95° C. for 5 min. The real-time PCR reactions were carried out with 10 μl of 2×TaqMan® Universal PCR Master Mix, no AmpErase® UNG (Applied Biosystems, USA), 9 μl diluted cDNA, and 1 μl of TaqMan gene specific assay mix in a 20 μl final reaction volume. Reference gene beta-actin (ACTB) (Applied Biosystems, USA) was selected as control for normalization of TaqMan data. The assay included a no-template control, a standard curve of five serial dilution points (in steps of 3-fold) of cDNA mixture. Probes specific for IFN-α (Hs01022060_m1), IFN-β (Hs01077958_s1), IFN-γ (Hs00985251_m1), ACTB(Hs01060665_g1) and GAPDH (Hs02758991_g1) were purchased from Applied Biosystems. The amplification was carried out using the 7500 Fast Real-Time PCR System (Applied Biosystems, USA) using a 40-cycle program. The 7500 software automatically calculates raw Ct (cycle threshold) values. Data from samples with a Ct value equal to or below 35 were further analyzed. […]

Series [3] relates to GAPDH. Nature of the series: Western blot of GAPDH protein in MG63 cells. The series is classed as cell-based, human. The settings on record: MG63, 50 nM, at 48 h, no transfection reagent. The protocol: After 48 hours of transfection, cells were washed twice with ice-cold PBS and lysed in RIPA lysis buffer (50 mM Tris-HCl, pH 8.0, with 150 mM NaCl, 1.0% Igepal CA-630 (NP-40), 0.5% sodiumdeoxycholate, 0.1% SDS, and 1.0% protease inhibitor cocktail from SIGMA-ALDRICH®). Lysates were incubated on ice for 30 minutes and centrifuged at 10,000 rpm for 20 minutes to collect supernatant. Coomassie Plus—The Better Bradford Assay™ Reagent (Thermo Scientific) was used to measure protein concentrations. Thereafter, 20 μg of soluble protein was separated by SDS-PAGE and transferred to polyvinylidene difluoride membrane (Millipore). Primary antibodies against GAPDH (1:1000 dilution), β-catenin (1:1000 dilution; SIGMA-ALDRICH®), β-actin (1:1000; Cell Signaling Technology®) were used to probe the protein bands. Anti-Rabbit-HRP conjugated secondary antibodies (1:3000 dilution; R&D Systems®) were used to detect the primary antibodies, followed by the target protein visualization with EMD Millipore Immobilon™ Western Chemiluminescent HRP Substrate (ECL). […]
To further validate our results, we tested the gene knockdown efficiency of another gene CTNNB1 (β-catenin), which is expressed in MG63 cells. We performed a time course experiment (24, 48 and 72 h) by targeting CTNNB1 and GAPDH in MG63 cells and quantified the mRNA and protein levels using qRT-PCR and Western blot experiments respectively (FIG. 8).

Where [4] appears, read: MG63 cells, MATra-si transfection.
[5] abbreviates: MG63 cells, carrier-free transfection.

d = 2'-deoxy (DNA); r = 2'-OH (RNA)

As usually defined, the Tm is the temperature at which the thermal transition is half complete. On to “dT2: Canonical GAPDH siRNA, sense SEQ ID NO: 1, antisense SEQ ID NO: 2, dTdT 3′-overhang on both strands (sense CCGAGCCACAUCGCUCAGATT; antisense UCUGAGCGAUGUGGCUCGGTT; sugars from the 5' end r19 d2, backbone not given here) [reference compound]”, for which the Tm in series [1] is 81.2 °C. The results for the GAPDH gene knockdown in series [2] (setting [4]) and in series [2] (setting [5]) were 60% and 28%, respectively.
On to “dT5: GAPDH siRNA, sense SEQ ID NO: 3 with dT5 3′-overhang, antisense SEQ ID NO: 2 with dT2 (sense CCGAGCCACAUCGCUCAGATTTTT; antisense UCUGAGCGAUGUGGCUCGGTT; sense: sugars from the 5' end r19 d5, backbone not given here; antisense: sugars from the 5' end r19 d2, backbone not given here)”, for which the Tm in series [1] is 80.6 °C. The “Δ Tm” value in series [1] (Tm relative to canonical siRNA (dT2)) was −0.6 °C. Moreover, the “drop in Tm” value in series [1] (as compared to canonical siRNA) was “about 0.5 °C”. For the same substance, the “GAPDH mRNA knockdown efficiency over time” value in series [2] (MG63, 50 nM, 24, 48 and 72 h, cpRNA without transfection reagent vs canonical siRNA with transfection reagent) is recorded as “higher gene knockdown efficiency for over 72 hrs”. Further, the “RNAi activity among different 5-nt candidates” value in series [2] (MG63 cells, FIG. 2B) is recorded as “highest RNAi activity”. Besides, the “enhancement in activity compared to canonical siRNA” value in series [2] (setting [4]) is recorded as 20%. Further, the GAPDH gene knockdown in series [2] (setting [5]) is listed as 80%. In series [3], the GAPDH protein level entry is on record as “complete knockout”.

The values are drawn from patent publication US20180265867A1, “NUCLEIC ACID MOLECULES WITH ENHANCED ACTIVITY” (priority 2015, published 2018).
